Measurements as given in ChEMBL document CHEMBL1201862, “PubChem BioAssay data set” (2004).
Active and inactive are the calls of the source.

How the values were obtained:
[1] = loss of viability in HepG2 cells – cell-based, CellTiter-Glo, cherry-picked, cytotoxicity control for Shn3 inhibitor project, dose response (AID 624134); format: functional
[2] = biological target: T1, Microphthalmia-associated transcription factor (Homo sapiens, UniProt O75030); test: reducers of TRPM1 reporter luminescence, concentration series – cell-based, SK-MEL-5, cherry-picked, set 3, MITF inhibitor project, dose response (AID 493073); format: functional;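 further: SK-MEL-5 melanoma cells with luciferase driven by the MITF target TRPM1 promoter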
T1 sequence (O75030 whole entry): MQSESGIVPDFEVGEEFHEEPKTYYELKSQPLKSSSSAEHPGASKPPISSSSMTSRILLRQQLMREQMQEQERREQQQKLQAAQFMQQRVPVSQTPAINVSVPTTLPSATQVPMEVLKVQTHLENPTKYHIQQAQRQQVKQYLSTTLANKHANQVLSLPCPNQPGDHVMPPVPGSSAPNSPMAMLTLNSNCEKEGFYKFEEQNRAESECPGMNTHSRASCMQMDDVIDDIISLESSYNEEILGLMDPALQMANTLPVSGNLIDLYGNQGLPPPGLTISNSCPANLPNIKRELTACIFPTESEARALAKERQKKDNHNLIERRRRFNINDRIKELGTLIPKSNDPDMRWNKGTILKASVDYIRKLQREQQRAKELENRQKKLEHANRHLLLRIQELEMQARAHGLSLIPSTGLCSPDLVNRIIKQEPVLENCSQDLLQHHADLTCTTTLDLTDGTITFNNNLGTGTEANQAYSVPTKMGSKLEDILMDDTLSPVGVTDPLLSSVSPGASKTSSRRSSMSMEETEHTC

[3] = reduction of Shn3 3'UTR-driven luciferase in osteoblasts – cell-based, Clone20 osteoblasts, firefly luciferase, cherry-picked, dose response (AID 624132); format: functional;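 further: firefly luciferase luminescence from reporter carrying the Shn3 3'UTR in osteoblasts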
[4] = non-specific 3'UTR reporter inhibition in Clone20-Shn3RL – cell-based, Renilla luciferase, cherry-picked, counter-screen for Shn3 inhibitor project, dose response (AID 624133); format: functional
[5] = biological target: T2, DNA repair protein RAD52 homolog (Homo sapiens, UniProt P43351); format: functional, biochemical
T2 sequence (P43351 whole entry): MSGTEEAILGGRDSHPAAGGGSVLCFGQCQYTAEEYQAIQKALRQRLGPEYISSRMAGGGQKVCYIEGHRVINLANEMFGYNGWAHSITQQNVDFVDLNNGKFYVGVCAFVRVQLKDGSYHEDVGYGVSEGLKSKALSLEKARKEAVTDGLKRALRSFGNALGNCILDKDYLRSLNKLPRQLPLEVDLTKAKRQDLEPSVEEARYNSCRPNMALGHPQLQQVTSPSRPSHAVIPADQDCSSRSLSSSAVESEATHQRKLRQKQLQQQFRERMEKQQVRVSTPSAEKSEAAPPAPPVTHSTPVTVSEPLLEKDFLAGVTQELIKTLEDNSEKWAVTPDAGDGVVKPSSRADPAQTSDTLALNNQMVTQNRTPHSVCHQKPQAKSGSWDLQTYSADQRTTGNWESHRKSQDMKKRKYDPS

[6] = biological target: T3, Zinc finger protein mex-5 (Caenorhabditis elegans, UniProt Q9XUB2); test: potency of MEX-5 RNA-binding blockers – biochemical, C. elegans, fluorescence polarization, dose response (AID 1960)
T3 sequence (Q9XUB2 whole entry): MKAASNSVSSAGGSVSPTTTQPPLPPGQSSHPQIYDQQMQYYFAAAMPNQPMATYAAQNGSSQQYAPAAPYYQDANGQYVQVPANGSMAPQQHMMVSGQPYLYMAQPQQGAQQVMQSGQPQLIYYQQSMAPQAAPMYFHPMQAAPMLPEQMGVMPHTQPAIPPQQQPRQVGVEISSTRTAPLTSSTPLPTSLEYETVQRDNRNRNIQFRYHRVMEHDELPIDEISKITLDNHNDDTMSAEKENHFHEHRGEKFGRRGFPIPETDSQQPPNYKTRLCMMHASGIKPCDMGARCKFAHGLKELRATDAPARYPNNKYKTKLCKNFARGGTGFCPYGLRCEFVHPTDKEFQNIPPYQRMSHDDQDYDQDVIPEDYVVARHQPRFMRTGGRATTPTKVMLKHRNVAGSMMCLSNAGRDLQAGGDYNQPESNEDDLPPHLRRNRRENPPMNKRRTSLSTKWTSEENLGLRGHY

[7] = biological target: T4, RNA-binding protein pos-1 (Caenorhabditis elegans, UniProt G5EF15); test: disruptors of C. elegans POS-1 RNA interaction – biochemical, fluorescence polarization, dose response (AID 1964);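 further: purified POS-1 fused to maltose binding protein made in E. coli; potency of compounds blocking POS-1 binding to fluorescent RNA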
T4 sequence (G5EF15 whole entry): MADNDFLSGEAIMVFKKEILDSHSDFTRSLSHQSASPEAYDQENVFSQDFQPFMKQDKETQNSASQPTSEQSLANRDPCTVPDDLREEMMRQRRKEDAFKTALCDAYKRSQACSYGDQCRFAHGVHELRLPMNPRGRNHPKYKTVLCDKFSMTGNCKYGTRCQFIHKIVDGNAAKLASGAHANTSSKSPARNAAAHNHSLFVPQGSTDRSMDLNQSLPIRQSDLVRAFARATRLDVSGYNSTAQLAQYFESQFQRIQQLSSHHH

[8] = biological target: T5, Endoribonuclease toxin MazF (Escherichia coli K-12, UniProt P0AE70); test: substrate-only fluorescence increase artefacts – biochemical, single-stranded RNase substrate, counter-screen for MazEF activator project, dose response (AID 588502); format: functional
T5 sequence (P0AE70 whole entry): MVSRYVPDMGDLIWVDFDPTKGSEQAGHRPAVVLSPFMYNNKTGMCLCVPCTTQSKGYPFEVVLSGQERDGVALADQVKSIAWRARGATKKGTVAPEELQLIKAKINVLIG

[9] = system: Streptococcus sp. 'group A'; test: Streptococcus pyogenes SK(-)GAS viability under kanamycin – luminescence, BacTiterGlo, confirmation, counter-screen for streptokinase expression inhibitor project, dose response (AID 1900); format: functional, organism-based
Streptokinase A = biological target: T6, Streptokinase A (Streptococcus pyogenes serotype M1, UniProt P10520); test: viability-normalized secreted streptokinase activity reduction – plasminogen activation absorbance, OD405, dose response (AID 1914); format: functional, Streptococcus pyogenes M1 GAS;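 further: secreted streptokinase activity via plasminogen activation per viability signal from cell pellet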
T6 sequence (P10520 whole entry): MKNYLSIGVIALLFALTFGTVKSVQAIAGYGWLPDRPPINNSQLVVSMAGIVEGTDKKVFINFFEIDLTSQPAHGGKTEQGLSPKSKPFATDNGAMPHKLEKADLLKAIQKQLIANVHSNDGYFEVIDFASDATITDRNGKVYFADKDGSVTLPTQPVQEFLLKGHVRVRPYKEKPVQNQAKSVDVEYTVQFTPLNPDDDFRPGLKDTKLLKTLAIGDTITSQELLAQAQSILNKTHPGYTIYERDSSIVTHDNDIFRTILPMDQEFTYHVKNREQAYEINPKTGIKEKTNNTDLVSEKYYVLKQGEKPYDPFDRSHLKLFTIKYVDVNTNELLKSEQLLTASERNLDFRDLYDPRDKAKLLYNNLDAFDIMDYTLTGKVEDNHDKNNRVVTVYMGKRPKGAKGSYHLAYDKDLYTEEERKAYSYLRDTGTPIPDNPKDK

Streptococcus = test: GAS UMAA2166 growth inhibition – luminescence, BacTiterGlo, counter-screen for streptokinase expression inhibitor project, dose response (AID 1915); format: functional, organism-based;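 further: potency for reduction of bacterial viability or growth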
[10] = biological target: T5, Endoribonuclease toxin MazF; test: activation of MazEF endoribonuclease cleavage – biochemical, fluorescence, single-stranded RNA substrate, uHTS hits, dose response (AID 588481); format: functional
Paired box protein Pax-8 = Paired box protein Pax-8 (Homo sapiens, UniProt Q06710); test: PAX8 transcriptional activity inhibition in RMG-I – RMG-I cells, luciferase, cherry-pick, dose response (AID 687027); format: functional, cell-based;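 further: luciferase reporter driven by Pax8 target thyroperoxidase promoter measured by SteadyGlo luminescence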
Sequence of Paired box protein Pax-8 (Q06710 whole entry): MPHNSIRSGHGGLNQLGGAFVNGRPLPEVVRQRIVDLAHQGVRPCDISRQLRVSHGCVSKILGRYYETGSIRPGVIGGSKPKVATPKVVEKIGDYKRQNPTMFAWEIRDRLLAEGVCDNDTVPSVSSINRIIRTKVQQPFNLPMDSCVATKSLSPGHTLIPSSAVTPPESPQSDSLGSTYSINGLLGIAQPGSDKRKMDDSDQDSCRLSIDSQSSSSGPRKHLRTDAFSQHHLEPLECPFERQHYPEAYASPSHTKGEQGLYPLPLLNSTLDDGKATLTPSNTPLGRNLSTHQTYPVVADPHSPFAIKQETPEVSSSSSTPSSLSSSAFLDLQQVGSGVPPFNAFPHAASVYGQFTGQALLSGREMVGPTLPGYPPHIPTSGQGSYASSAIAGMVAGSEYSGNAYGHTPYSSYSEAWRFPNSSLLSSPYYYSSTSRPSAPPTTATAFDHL

[11] = biological target: T7, Corticotropin-releasing factor receptor 2/Corticotropin-releasing factor-binding protein (Homo sapiens, UniProt P24387+Q13324); test: activators of CRF receptor 2 with binding protein – uHTS hits, confirmation (AID 602473); format: functional; conditions: read-out: EC50_Mean
T7 sequence (Q13324 whole entry): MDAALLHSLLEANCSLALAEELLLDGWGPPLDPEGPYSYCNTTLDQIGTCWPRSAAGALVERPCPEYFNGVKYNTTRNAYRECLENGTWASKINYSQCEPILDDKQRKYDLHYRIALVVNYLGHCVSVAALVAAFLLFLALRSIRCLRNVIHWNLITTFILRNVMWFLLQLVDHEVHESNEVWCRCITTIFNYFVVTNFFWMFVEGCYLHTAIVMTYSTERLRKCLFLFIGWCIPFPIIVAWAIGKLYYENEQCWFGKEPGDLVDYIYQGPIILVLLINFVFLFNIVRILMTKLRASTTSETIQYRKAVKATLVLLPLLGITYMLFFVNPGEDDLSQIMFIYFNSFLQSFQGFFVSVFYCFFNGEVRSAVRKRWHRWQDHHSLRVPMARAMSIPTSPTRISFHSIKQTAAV
T7 sequence (P24387 whole entry): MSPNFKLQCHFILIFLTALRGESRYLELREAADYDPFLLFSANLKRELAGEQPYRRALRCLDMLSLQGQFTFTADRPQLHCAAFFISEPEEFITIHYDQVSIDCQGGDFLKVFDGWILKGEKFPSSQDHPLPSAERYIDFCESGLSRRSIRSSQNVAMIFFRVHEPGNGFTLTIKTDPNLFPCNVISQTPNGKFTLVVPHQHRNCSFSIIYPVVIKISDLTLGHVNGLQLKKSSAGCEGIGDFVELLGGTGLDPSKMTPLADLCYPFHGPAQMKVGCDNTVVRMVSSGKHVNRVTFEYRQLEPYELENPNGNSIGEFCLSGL

Leucine aminopeptidase = biological target: T8, Leucine aminopeptidase (Plasmodium falciparum 3D7, UniProt Q8IL11); test: P. falciparum M17LAP inhibitors, primary screen, biochemical, fluorogenic H-Leu-NHMec substrate, 1536-well (AID 1619); format: functional
T8 sequence (Q8IL11 whole entry): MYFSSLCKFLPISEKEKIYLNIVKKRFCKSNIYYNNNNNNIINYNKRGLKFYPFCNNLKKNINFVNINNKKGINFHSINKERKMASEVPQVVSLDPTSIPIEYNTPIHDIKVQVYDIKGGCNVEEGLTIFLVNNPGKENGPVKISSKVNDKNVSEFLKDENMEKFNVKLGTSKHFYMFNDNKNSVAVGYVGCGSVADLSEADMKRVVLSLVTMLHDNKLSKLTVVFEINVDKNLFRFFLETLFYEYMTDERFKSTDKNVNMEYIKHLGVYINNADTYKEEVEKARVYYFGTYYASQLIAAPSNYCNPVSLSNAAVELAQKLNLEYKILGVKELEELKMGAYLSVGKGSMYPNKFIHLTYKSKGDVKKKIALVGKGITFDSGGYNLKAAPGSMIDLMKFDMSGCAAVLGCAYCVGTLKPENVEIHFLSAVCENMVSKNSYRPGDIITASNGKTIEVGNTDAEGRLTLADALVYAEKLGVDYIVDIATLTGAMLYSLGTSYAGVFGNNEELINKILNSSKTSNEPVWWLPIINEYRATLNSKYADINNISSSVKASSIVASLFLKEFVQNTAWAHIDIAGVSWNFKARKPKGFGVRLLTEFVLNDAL

## CC(=O)Nc1nc(C)c(-c2csc(Nc3cccc(C(C)=O)c3)n2)s1
[1]
  AC50: 21 µM (active)
[2]
  AC50: 8.38 µM (active)
[3]
  AC50: 1.67 µM (active)
[4]
  AC50: < 0.5 µM (active)

## CCN1CCN(Cc2c(C(=O)N/N=C(\C)c3ccc(Cl)cc3)nnn2-c2nonc2N)CC1
[5]
  AC50: 8.73 µM (active)
[6]
  EC50: > 300 µM (not active)
[7]
  EC50: > 300 µM (not active)

## N#C/C(=C(/O)c1ccc([N+](=O)[O-])o1)c1nc2ccccc2[nH]1
[2]
  AC50: 3.8 µM (active)
[8]
  EC50: 5.53 µM (active)
[9]
  EC50: 3.57 µM (active)
Streptokinase A
  EC50: 27.6 µM (active)
Streptococcus
  EC50: 66 µM (active)
[10]
  EC50: > 99 µM (inactive)

## CN(C)CC(C(=O)Cc1ccccc1)c1ccccc1 (centres undefined)
Paired box protein Pax-8
  AC50: 1.71 µM (active)
[1]
  AC50: 14.5 µM (active)
[3]
  AC50: 7.81 µM (active)
[4]
  AC50: 7.58 µM (active)

## Cc1cc(/C=C2\C(=O)NC(=O)N(c3cccc(Br)c3)C2=O)c(C)n1C
[8]
  EC50: > 99 µM (inactive)
[11]
  EC50: 26.2 µM (active)
[10]
  EC50: > 99 µM (inactive)

## COc1nccnc1NS(=O)(=O)c1ccc(/N=C/c2c(C)[nH]n(-c3ccccc3)c2=O)cc1
Leucine aminopeptidase
  IC50: 35 µM (active)

## O=C(c1ccco1)c1c[nH]nc1-c1ccc(Cl)cc1O
Leucine aminopeptidase
  IC50: 101 µM (active)

## CN1CCN(CCCNc2nc3ccccc3c3nc(-c4ccccc4)nn23)CC1
[5]
  AC50: 14.2 µM (active)

## CCOc1ccc(NC(=O)CSc2n[nH]c(N)n2)c([N+](=O)[O-])c1
Leucine aminopeptidase
  IC50: 12.7 µM (active)
